Assay results: patent publication US8778302B2, “Procaspase 8-mediated disease targeting” (The University of British Columbia, priority 2007, dated 2014)
Values after ≈ are worked out from the molar mass of the structure shown. One block for each molecule: values may come before it.

Key:
HCT116 cells = experiment: Cell viability (MTS) assay after Caspase 8 siRNA, HCT116; format: cell-based, human; conditions: HCT116, Caspase 8 siRNA+5-FU
Procedure: (§1) Cell Lines: MIP101 and HCT116 (ATCC) human CRC cells were maintained in DMEM media supplemented with 1% penicillin-streptomycin, 1% kanamycin (Invitrogen) and 10% newborn calf serum at 37° C. and 5% CO2. […] MIP101 transfected with empty vector (VIIP/ZEO) and MIP101 cells stably transfected with SPARC (MIP/SP), were also supplemented with 0.01% zeocin (Invitrogen).
(§2) Cell viability was assessed by MTS assay (Promega) at 490 nm. Caspase 3/7 Assay: Cells were transiently transfected with 40 nM of Caspase 8 siRNA for 48 hours, and incubated with 1000 μM 5-FU for another 48 hours. Total cell lysates were isolated and 20 μg of total protein/sample were used in Caspase-Glo 3/7 Assay (Promega), using a 1:1 dilution of Caspase-Glo 3/7 Substrate. Relative luminescence units (RLU) was quantified using a Viktor2 1420 Multilabel counter (Perkin Elmer).

[1] = tested on: Caspase 3/7 activity in MIP/ZEO cells; experiment: Caspase 3/7 assay (Caspase-Glo), MIP/ZEO; format: cell-based, human
Procedure: as §2, with “Caspase 3/7 Assay: Cells were transiently transfected with 40 nM of Caspase 8 siRNA for 48 hours, and incubated with 1000 μM 5-FU for another 48 hours.” left out

[2] = tested on: Caspase 8 in MIP/SP tumors; experiment: Caspase 8 protein activity in MIP/SP tumor xenografts; format: in vivo, nude mice; conditions: MIP/SP tumors from animals treated with 5-FU (FIG. 6C)
Procedure: In addition, tumor xenografts of MIP/ZEO and MIP/SP cells from nude mice treated with either 5-FU (three consecutive days) or saline, were collected after the 1st cycle of treatment and homogenized (Kinematica, POLYTRON-Aggregate). Lysates were then prepared for immunoblot or RT-PCR. […] Similarly, cells seeded on coverslips at 150,000 cells/well in a E-well plate, treated 24 hours later with 1000 μM 5-FU for 2 hours were then fixed in 2% paraformaldehyde and processed for immunofluorescence staining as previously described [27]. In both cases, α-caspase 8 (1:50, paraffin-embedded tissues; 1:100, cells on coverslips) antibody was used and incubated overnight at 4° C., and counterstained with DAPI. Zeiss Axioplan 2 Fluorescence microscope was used for image capture.

MIP/SP cells [3] = experiment: Cell viability (MTS) assay after Caspase 8 siRNA, MIP/SP; format: cell-based, human; conditions: Caspase 8 gene silencing, after 5-FU treatment (0-1200 μM) (FIG. 3A)
MIP/ZEO cells [4] = experiment: Cell viability (MTS) assay after Caspase 8 siRNA, MIP/ZEO; format: cell-based, human; conditions: Caspase 8 knock-down
Procedure: as §1, §2

MIP/SP cells [5] = experiment: caspase 8/9 inhibition, cell viability by MTS, MIP/SP; format: cell-based, human
Procedure: (§3) caspase 8/9 Inhibition: Cells were seeded (96-well plates), and incubated 24 hours later (˜60% confluence) with 10-50 μM of Caspase 8-like inhibitor (z-IETD-fmk, Sigma) or Caspase 9-like inhibitor (z-LEHDfink•TFA, Sigma) for 30 minutes, followed by incubation with 1000 μM 5-FU for an additional 24 hours. Cell viability was assessed by MTS assay.

MIP/5FU cells [6] = experiment: TUNEL assay, MIP/5FU; format: cell-based, human; conditions: 5-FU treatment (FIG. 4B, C)
Procedure: (§4) TUNEL Assay: Cells were seeded (24-well plates) to achieve ˜60% confluence 24 hours later for transient transfection with Caspase 8 siRNA. 36 hours later, cells were incubated with 1000 μM 5-FU for 36 hours, harvested (suspension and attached cells) and fixed onto glass slides with Shandon cytospin at 2000 rpm for 10 minutes and stained as per manufacturer's instructions (Promega). The number of TUNEL-positive cells was counted and averaged from four different fields (n=4 independent experiments, with slides read independently by two individuals in a blinded fashion).

MIP/ZEO cells [7] = experiment: caspase 8/9 inhibition, cell viability by MTS, MIP/ZEO; format: cell-based, human
Procedure: as §3

[8] = tested on: Caspase 3/7 activity in MIP/SP cells; experiment: Caspase 3/7 assay (Caspase-Glo), MIP/SP; format: cell-based, human
Procedure: as §2, with “Caspase 3/7 Assay: Cells were transiently transfected with 40 nM of Caspase 8 siRNA for 48 hours, and incubated with 1000 μM 5-FU for another 48 hours.” left out

[9] = tested on: Caspase 3 activation in MIP/5FU cells; experiment: Caspase 3/7 assay (Caspase-Glo), MIP/5FU; format: cell-based, human; conditions: Caspase 8 siRNA or scramble control (FIG. 4A)
Procedure: as §2

MIP/SP cells [10] = experiment: TUNEL assay, MIP/SP; format: cell-based, human
Procedure: as §4

MIP/5FU cells [11] = experiment: Cell viability (MTS) assay after Caspase 8 siRNA, MIP/5FU; format: cell-based, human; conditions: with Caspase 8 knock-down (FIG. 3B)
Procedure: as §1, §2

MIP/ZEO cells [12] = experiment: TUNEL assay, MIP/ZEO; format: cell-based, human; conditions: 5-FU
Procedure: as §4

[13] = in vitro cytotoxicity of ABX and Taxol; format: cell-based; conditions: Homo sapiens, A-431; A431 line
Procaspase 8 = target: T1, Procaspase 8 (Homo sapiens, UniProt Q14790); experiment: immunoprecipitation of Procaspase 8 with truncated SPARC polypeptides; format: binding; conditions: truncated SPARC polypeptide near amino terminus (MIP/NT), FIG. 8
T1 construct: endogenous in cells; host or cells: MIP101-derived cells expressing SPARC fragments (MIP/NT, MIP/FS, MIP/EC)
T1 sequence (Q14790 whole entry, the tested form may be a part): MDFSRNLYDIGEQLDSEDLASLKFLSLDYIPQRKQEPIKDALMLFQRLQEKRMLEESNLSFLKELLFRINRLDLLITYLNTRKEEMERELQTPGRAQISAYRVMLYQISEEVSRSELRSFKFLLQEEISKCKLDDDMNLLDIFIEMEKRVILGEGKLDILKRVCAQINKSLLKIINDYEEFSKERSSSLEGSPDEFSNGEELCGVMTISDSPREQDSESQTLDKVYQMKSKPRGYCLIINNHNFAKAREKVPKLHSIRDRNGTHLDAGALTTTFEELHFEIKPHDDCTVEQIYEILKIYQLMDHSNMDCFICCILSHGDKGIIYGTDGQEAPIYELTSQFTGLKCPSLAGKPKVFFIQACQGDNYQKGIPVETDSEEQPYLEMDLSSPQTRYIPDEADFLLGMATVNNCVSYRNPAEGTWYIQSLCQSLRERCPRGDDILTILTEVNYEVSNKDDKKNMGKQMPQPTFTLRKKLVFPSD
Procedure: Immunopreciptation was performed with anti-histidine tag antibody (IP: His) (See FIG. 8A) or an anti-Caspase 8 antibody (IP: Capsaase 8) (See FIG. 8B) in the presence of Procaspase 8 and truncated SPARC polypeptides comprising a sequence near the SPARC amino terminus (SEQ ID NO: 20) (MIP/NT), a sequence from the SPARC follistatin-like domain (SEQ ID NO: 22) (MIP/FS), a sequence from the SPARC extracellular domain (SEQ ID NO: 24) (MIP/EC) or a control antibody (IgG).

[14] = target: T2, interaction between Bcl-2 and Procaspase 8 (Homo sapiens, UniProt Q14790); experiment: co-immunoprecipitation of Bcl-2 and Procaspase 8 with exogenous SPARC; format: binding; conditions: addition of exogenous SPARC, 10 μg/ml for 72-hrs; resistant cell lines (FIG. 9C)
T2 construct: lysates were separated into nuclear, cytosolic, and membrane fractions; endogenous in cells; host or cells: MIP/5FU (MIP101 resistant to 5-FU) and MiaPaca/CPT cells
T2 sequence (Q14790 whole entry): as the sequence (Q14790 whole entry, the tested form may be a part) above
Procedure: Cells were grown until ˜80% confluence, and lysates were separated into nuclear, cytosolic, and membrane fractions. 250 μg of individual cellular fractions were incubated with antibodies against HIS (1:100, Sigma), capsase 8 (N-terminus) (1:100, Abcam), Bcl-2 (1:100, Cell Signaling Technologies) or a non-specific anti-mouse IgG antibody as control (Cell Signaling Technologies), in PBS overnight (4° C.). Protein:Antibody mixture was then incubated with […] of Protein A:Protein G (Sigma) (1:1) beads for 4 hours (4° C.). For all complexes, beads were washed with PBS, and eluted with 2×SDS-loading buffer, and used for immunoblotting against caspase 8, HIS, or Bcl-2.
In order to determine the region of interaction between Bcl-2 and Procaspase 8, cells were also incubated with antibodies against caspase 8 targeting its C-terminus (Cell Signaling) or N-terminus (Abeam) in vitro for 24 hours at 1.5-3.0 μg prior to collecting and fractionating the cell lysates for immunoprecipitation. In addition, to assess if exogenous SPARC interferes with the interaction of procaspase 8 and Bcl-2, cells were incubated with 10 μg/ml of SPARC for 72-hrs, in the presence or absence of antibodies against SPARC (3 μg, Hematologic Technologies) for 24 hrs, prior to collection for cellular fractionation and immunoprecipitation.

[15] = tested on: Caspase 8 expression in MIP 101 tumor xenografts; experiment: Caspase 8 expression in MIP 101 mouse tumor xenografts; format: in vivo, NIH nude mice; conditions: mice administered SPARC as single agent (FIG. 6D)
Procedure: Animal Studies: Tumors harvested from xenografts from animals (NIH nude mice, 6 weeks old, Taconic Laboratories) were used for histology, RT-PCR or immunoblot. 2×10^6 MIP101 cells were injected into the left flank.
Experimental groups (2 animals/group) for this study included treatment with: SPARC, SPARC+5-FU, 5-FU only, and saline. In addition, tumor xenografts of MIP/ZEO and MIP/SP cells from nude mice treated with either 5-FU (three consecutive days) or saline, were collected after the 1st cycle of treatment and homogenized (Kinematica, POLYTRON-Aggregate). Lysates were then prepared for immunoblot or RT-PCR. All animals received care according to standard animal care protocol and guidelines. […] Similarly, cells seeded on coverslips at 150,000 cells/well in a E-well plate, treated 24 hours later with 1000 μM 5-FU for 2 hours were then fixed in 2% paraformaldehyde and processed for immunofluorescence staining as previously described. In both cases, α-caspase 8 (1:50, paraffin-embedded tissues; 1:100, cells on coverslips) antibody was used and incubated overnight at 4° C., and counterstained with DAPI. Zeiss Axioplan 2 Fluorescence microscope was used for image capture.

[16] = Homo sapiens, 1000 μM 5-FU for 24 hours only, read-out: decrease in cell viability

Molecule: O=c1[nH]cc(F)c(=O)[nH]1 [5-FU, 5-fluorouracil]
viable cells (HCT116 cells): 88.2±2.3%
Caspase 3/7 activity ([1]; MIP/ZEO cells, 12 hours after incubation with 5-FU): 9954.0±1104.8 RLU
Caspase 3/7 activity ([1]; MIP/ZEO, 5-FU, scramble control): 1915.0±661.3 RLU
Caspase 3/7 activity ([1]; MIP/ZEO, 5-FU, transfected with Caspase 8 siRNA): 2321.3±661.3 RLU
Caspase 8 protein activity in tumors [2]: highest
cell viability (viable cells) (MIP/SP cells [3]): 97.6±1.4%
cell viability (MIP/ZEO cells [4]; following 5-FU treatment (FIG. 3B)): 75.5±0.5%
viability at 1200 µM (MIP/ZEO cells [4]; Homo sapiens, 5-FU 1200 μM (FIG. 3A)): 52.1 ± 1.7%
cytotoxicity at 1000 µM (MIP/SP cells [5]; [16]): 16.8 ± 4.5%
apoptosis response (TUNEL) (MIP/5FU cells [6]): did not respond to 5-FU treatment significantly
decrease in cell viability (MIP/ZEO cells [7]; 5-FU-treated after pre-incubation with Caspase 8-like inhibitor): 14.0±4.6%
cytotoxicity at 1000 µM (MIP/ZEO cells [7]; [16]): 21 ± 5.9%
Caspase 3/7 activity ([8]; MIP/SP cells, 12 hours after incubation with 5-FU): 16397.0±2787.6 RLU
Caspase 3/7 activity ([8]; MIP/SP transfected with Caspase 8 siRNA, 5-FU treated): 291.0±34.7 RLU
Caspase 3/7 activity ([8]; control MIP/SP cells, 5-FU treated): 5501.0±800.0 RLU
Caspase 3 activation [9]: No Caspase 3 activation was observed
apoptotic cells (TUNEL) (MIP/SP cells [10]; MIP/SP exposed to 5-FU, no Caspase 8 inhibition): 20.7±6.9%
apoptotic cells (TUNEL) (MIP/SP cells [10]; MIP/SP, 5-FU following Caspase 8 gene knock-down): 0.5±0.5%
effect of 5-FU on cell viability (MIP/5FU cells [11]): remained unaffected
apoptotic cells (TUNEL) (MIP/ZEO cells [12]; no transfection with Caspase 8 siRNA): 12.2±0.7%
apoptotic cells (TUNEL) (MIP/ZEO cells [12]; transfection with Caspase 8 siRNA): 12.5±2.4%

Molecule: CC(=O)O[C@H]1C(=O)[C@@]2(C)[C@H]([C@H](OC(=O)c3ccccc3)[C@]3(O)C[C@H](OC(=O)[C@H](O)[C@@H](NC(=O)c4ccccc4)c4ccccc4)C(C)=C1C3(C)C)[C@]1(OC(C)=O)CO[C@@H]1C[C@@H]2O [TAX, Taxol]
IC50 [13]: 0.012 µg/mL (≈ 0.0141 µM)

Molecule: SEQ ID NO: 20: truncated SPARC polypeptide comprising a sequence near the SPARC amino terminus (APQQEALPDETEVVEETVAEVTEVSVGANPVQVEVGEFDDGAEETEEEVVA; SPARC Polypeptide Expressed in MIP/NT cells)
interaction with Procaspase 8 (co-immunoprecipitation) (Procaspase 8): involves a SPARC domain which is within the amino acid sequence of SEQ ID NO: 20

Molecule: z-IETD-fmk
effect of Caspase 8-like inhibitor on 5-FU-induced decrease in cell viability (MIP/SP cells [5]; pre-incubation with inhibitor (as low as 10 μM), then 1000 μM 5-FU): prevented a significant decrease in cell viability
effect of Caspase 8-like inhibitor on 5-FU-induced decrease in cell viability (MIP/ZEO cells [7]; inhibitor 50 μM, then 5-FU): no such effect could be demonstrated

Molecule: z-LEHD-fmk•TFA
effect of Caspase 9-like inhibitor on 5-FU-induced decrease in cell viability (MIP/SP cells [5]; inhibitor then 5-FU): preventing a significant decrease in cell viability
effect of Caspase 9-like inhibitor on 5-FU-induced decrease in cell viability (MIP/ZEO cells [7]; inhibitor then 5-FU): preventing a significant decrease in cell viability

blocking of interaction between Bcl-2 and Procaspase 8 [14]: can be blocked
B1: SPARC: Secreted Protein, Acidic, Rich in Cysteines, a 281 amino acid glycoprotein (protein)
chain: APQQEALPDETEVVEETVAEVTEVSVGANPVQVEVGEFDDGAEETEEEVVAENPCQNHHCKHGKVCELDENNTPMCVCQDPTSCPAPIGEFEKVCSNDNKTFDSSCHFFATKCTLEGTKKGHKLHLDYIGPCKYIPPCLDSELTEFPLRMRDWLKNVLVTLYERDEDNNLLTEKQKLRVKKIHENEKRLEAGDHPVELLARDFEKNYNMYIFPVHWQFGQLDQHPIDGYLSHTELAPLRAPLIPMEHCTTRFFETCDLDNDKYIALDEWAGCFGIKQKDIDKDLVI
modifications: left off: small tags and cut ends
notes: Secreted Protein, Acidic, Rich in Cysteines, a 281 amino acid glycoprotein
Caspase 8 expression in tumor xenografts [15]: higher levels of Caspase 8
